In patent US9365506B2, “Compounds and compositions as TLR2 agonists” (NOVARTIS AG, priority 2010, dated 2016):

Target: human TLR2 (Homo sapiens, UniProt O60603)
Test: Reporter gene assay: HEK 293 cells stably transfected with human TLR2 and NF-kB-driven luciferase reporter
Conditions: for Emax: HEK293, 7 h, read-out: Hek-TLR2 (% Eff); for EC50: Hek-TLR2 μM (EC50), HEK 293 stably transfected with human TLR2 and pNifty-Luciferase, 7 hours incubation, concentration giving 50% of maximal signal
Experimental: As a control assay, normal Hek293 transfected with pNifty-Luc were used. […] Bright-Glo™ Luciferase assay buffer and substrate were supplied by Promega #E263B and #E264B (assay substrate and buffer respectively). 384 well clear-bottom plates were supplied by Greiner bio-one (#789163-G) and were custom bar-coded plates.
Cells were plated at 25,000 cells/well in 384-well plates in a final volume of 50 μl of media. Cells were allowed to adhere to the plates after overnight (18 hours) culture at 37° C. and 5% CO2. Serially diluted experimental and positive control compounds were then dispensed to each well and incubated for 7 hours at 37° C. and 5% CO2. Cells stimulated with DMSO alone also serve as negative controls. After the incubation, 30 μl of the pre-mix assay buffer and substrate buffer were added to each well according to manufacturer's instructions. The luminescence signal was read on a CLIPR machine with an integration time of 20 seconds per plate.

Chain of human TLR2 (O60603 21-784): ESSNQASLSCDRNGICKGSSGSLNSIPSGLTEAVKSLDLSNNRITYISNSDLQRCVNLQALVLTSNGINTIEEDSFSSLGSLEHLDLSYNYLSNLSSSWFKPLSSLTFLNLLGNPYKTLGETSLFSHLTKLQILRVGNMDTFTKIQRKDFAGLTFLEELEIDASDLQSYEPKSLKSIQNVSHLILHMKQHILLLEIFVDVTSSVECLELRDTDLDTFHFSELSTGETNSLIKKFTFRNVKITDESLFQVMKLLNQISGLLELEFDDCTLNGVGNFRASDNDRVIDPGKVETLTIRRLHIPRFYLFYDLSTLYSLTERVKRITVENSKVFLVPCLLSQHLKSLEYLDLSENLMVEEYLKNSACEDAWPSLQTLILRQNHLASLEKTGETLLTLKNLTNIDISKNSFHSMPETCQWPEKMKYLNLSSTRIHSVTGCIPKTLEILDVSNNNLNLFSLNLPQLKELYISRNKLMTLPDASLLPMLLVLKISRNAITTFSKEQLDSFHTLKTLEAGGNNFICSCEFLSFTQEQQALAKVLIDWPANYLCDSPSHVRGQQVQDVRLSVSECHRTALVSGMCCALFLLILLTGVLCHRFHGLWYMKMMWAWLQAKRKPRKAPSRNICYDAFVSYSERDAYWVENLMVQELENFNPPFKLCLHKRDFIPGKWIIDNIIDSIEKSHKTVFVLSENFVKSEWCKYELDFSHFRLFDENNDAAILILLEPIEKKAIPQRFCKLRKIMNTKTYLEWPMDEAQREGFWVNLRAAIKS

| Emax [%] | EC50 [µM] | SMILES |
| --- | --- | --- |
| 25 | 0.096 | CCCCCCCCCCCCCCCC(=O)N[C@@H](CSC[C@@H](COC(=O)CCCCCCCCCCC)OC(=O)CCCCCCCCCCC)C(=O)NCCCOCCOCCOCCCNC(=O)CCC1OCCO1 [Example 40, (20R,24R)-1-(1,3-dioxolan-2-yl)-3,19-dioxo-20-palmitamido-8,11,14-trioxa-22-thia-4,18-diazapentacosane-24,25-diyl didodecanoate] |
| 61 | 15.3 | CCCCCCCCCCCC(=O)OC[C@H](CSC[C@H](N)C(=O)NCCc1ccc(OCCOCCO)cc1)OC(=O)CCCCCCCCCCC [Example 41, (R)-3-(((R)-2-amino-3-((4-(2-(2-hydroxyethoxy)ethoxy)phenethyl)amino)-3-oxopropyl)thio)propane-1,2-diyl didodecanoate] |
| 101 | 4.4 | CCCCCCCCCCCC(=O)OC[C@H](CSC[C@H](N)C(=O)NCCCCCCCCCC(=O)O)OC(=O)CCCCCCCCCCC [Example 42, 10-((R)-2-amino-3-(((R)-2,3-bis(dodecanoyloxy)propyl)thio)propanamido)decanoic acid] |
| 54 | 15.5 | CCCCCCCCCCCC(=O)OC[C@H](CSC[C@H](N)C(=O)NC(C)(C)CO)OC(=O)CCCCCCCCCCC [Example 43, (R)-3-(((R)-2-amino-3-((1-hydroxy-2-methylpropan-2-yl)amino)-3-oxopropyl)thio)propane-1,2-diyl didodecanoate] |
| 72 | 8.17 | CCCCCCCCCCCC(=O)OC[C@H](CSC[C@H](N)C(=O)NCCc1ccc(OCCC(C)C)cc1)OC(=O)CCCCCCCCCCC [Example 44, (R)-3-(((R)-2-amino-3-((4-(isopentyloxy)phenethyl)amino)-3-oxopropyl)thio)propane-1,2-diyl didodecanoate] |
| 51 | > 21 | CCCCCCCCCCCC(=O)OC[C@H](CSC[C@H](N)C(=O)NCCc1cccc(O)c1)OC(=O)CCCCCCCCCCC [Example 49, (R)-3-(((R)-2-amino-3-((3-hydroxyphenethyl)amino)-3-oxopropyl)thio)propane-1,2-diyl didodecanoate] |
| 101 | 1.29 | CCCCCCCCCCCC(=O)OC[C@H](CSC[C@H](N)C(=O)NCCOCCOCCN)OC(=O)CCCCCCCCCCC [Example 54, (11R,15R)-1,11-diamino-10-oxo-3,6-dioxa-13-thia-9-azahexadecane-15,16-diyl didodecanoate] |
| 107 | 1.22 | CCCCCCCCCCCC(=O)OC[C@H](CSC[C@H](N)C(=O)NCCCCCCN)OC(=O)CCCCCCCCCCC [Example 56, (R)-3-(((R)-2-amino-3-((6-aminohexyl)amino)-3-oxopropyl)thio)propane-1,2-diyl didodecanoate] |
| 111 | 1.04 | CCCCCCCCCCCC(=O)OC[C@H](CSC[C@H](N)C(=O)NCCCCN)OC(=O)CCCCCCCCCCC [Example 57, (R)-3-(((R)-2-amino-3-((4-aminobutyl)amino)-3-oxopropyl)thio)propane-1,2-diyl didodecanoate] |
| 121 | 0.71 | CCCCCCCCCCCC(=O)OC[C@H](CSC[C@H](N)C(=O)NCCCN1CCOCC1)OC(=O)CCCCCCCCCCC [Example 59, (R)-3-(((R)-2-amino-3-((3-morpholinopropyl)amino)-3-oxopropyl)thio)propane-1,2-diyl didodecanoate] |
| 119 | 0.41 | CCCCCCCCCCCC(=O)OC[C@H](CSC[C@H](N)C(=O)NCCCn1ccnc1)OC(=O)CCCCCCCCCCC [Example 60, (R)-3-(((R)-3-((3-(1H-imidazol-1-yl)propyl)amino)-2-amino-3-oxopropyl)thio)propane-1,2-diyl didodecanoate] |
| 96 | 0.0718 | CCCCCCCCCCCC(=O)OC[C@H](CSC[C@H](N)C(=O)NC(CC)COC)OC(=O)CCCCCCCCCCC (stereo partly drawn) [Example 63, (2R)-3-(((2R)-2-amino-3-((1-methoxybutan-2-yl)amino)-3-oxopropyl)thio)propane-1,2-diyl didodecanoate] |
| 124 | 0.498 | CCCCCCCCCCCC(=O)OC[C@H](CSC[C@H](N)C(=O)NCCCOCCOCCOCCCN)OC(=O)CCCCCCCCCCC [Example 64, (16R,20R)-1,16-diamino-15-oxo-4,7,10-trioxa-18-thia-14-azahenicosane-20,21-diyl didodecanoate] |
| 64 | 0.068 | CCCCCCCCCCCC(=O)OC[C@H](CSC[C@H](N)C(=O)NC(Cc1ccccc1)c1ccccc1)OC(=O)CCCCCCCCCCC (stereo partly drawn) [Example 67, (2R)-3-(((2R)-2-amino-3-((1,2-diphenylethyl)amino)-3-oxopropyl)thio)propane-1,2-diyl didodecanoate] |
| 77 | 4.08 | CCCCCCCCCCCC(=O)OC[C@H](CSC[C@H](N)C(=O)NCCc1ccc(Oc2ccccc2)cc1)OC(=O)CCCCCCCCCCC [Example 68, (R)-3-(((R)-2-amino-3-oxo-3-((4-phenoxyphenethyl)amino)propyl)thio)propane-1,2-diyl didodecanoate] |
| 118 | 0.257 | CCCCCCCCCCCC(=O)OC[C@H](CSC[C@H](N)C(=O)NC(C)CCCN(CC)CC)OC(=O)CCCCCCCCCCC (stereo partly drawn) [Example 69, (2R)-3-(((2R)-2-amino-3-((5-(diethylamino)pentan-2-yl)amino)-3-oxopropyl)thio)propane-1,2-diyl didodecanoate] |
| 49 | 30.7 | CCCCCCCCCCCC(=O)OC[C@H](CSC[C@H](N)C(=O)NCCCC(C)(C)CO)OC(=O)CCCCCCCCCCC [Example 72, (R)-3-(((R)-2-amino-3-((5-hydroxy-4,4-dimethylpentyl)amino)-3-oxopropyl)thio)propane-1,2-diyl didodecanoate] |
| 105 | 0.19 | CCCCCCCCCCCC(=O)OC[C@H](CSC[C@H](N)C(=O)NC(C)CCC(C)C)OC(=O)CCCCCCCCCCC (stereo partly drawn) [Example 74, (2R)-3-(((2R)-2-amino-3-((5-methylhexan-2-yl)amino)-3-oxopropyl)thio)propane-1,2-diyl didodecanoate] |
| 58 | 0.96 | CCCCCCCCCCCCCCCC(=O)N[C@@H](CSC[C@@H](COC(=O)CCCCCCCCCCC)OC(=O)CCCCCCCCCCC)C(=O)N[C@@H](C)C(=O)N[C@H](CCC(=O)O)C(N)=O [Example 75, (4R,7S,10R,14R)-4-carbamoyl-14-(dodecanoyloxy)-7-methyl-6,9,17-trioxo-10-palmitamido-16-oxa-12-thia-5,8-diazaoctacosan-1-oic acid] |
| 109 | 3.45 | CCCCCCCCCCCCCCCCOC[C@H](CSC[C@H](N)C(=O)NCCOCCOCCOCCP(=O)(O)O)OCCCCCCCCCCCCCCCC [Example 76, ((14R,18R)-14-amino-18-(hexadecyloxy)-13-oxo-3,6,9,20-tetraoxa-16-thia-12-azahexatriacontyl)phosphonic acid] |
| 100 | 0.038 | CCCCCCCCCCCC(=O)OC[C@H](CSC[C@H](N)C(=O)NCCOCCOCCOCCOCCP(=O)(O)O)OC(=O)CCCCCCCCCCC [Example 77, ((17R,21R)-17-amino-21-(dodecanoyloxy)-16,24-dioxo-3,6,9,12,23-pentaoxa-19-thia-15-azapentatriacontyl)phosphonic acid] |
